Measured values from US11738031B2, “Compositions and methods for preventing or treating muscle conditions” (The Board of Trustees of the Leland Stanford Junior …, priority 2017, dated 2023).

Legend:
[1] = system: tibialis anterior (TA) muscle; test: Cardiotoxin muscle injury, TA histology (PAX7, myofiber cross-sectional area); assay type: in vivo, mouse; conditions: for effect on endogenous MuSCs in the absence of injury: no tissue damage; for increase in endogenous PAX7-expressing MuSCs / distribution of myofiber cross-sectional area: young mice; for increase in endogenous PAX7-expressing MuSCs: bolus three days after injury, fourteen days post injury; for distribution of myofiber cross-sectional area: day 14 post-cardiotoxin injury
Experimental: Muscle injury: We used an injury model entailing intramuscular injection of 10 μl of notexin (10 μg ml^−1; Latoxan) or cardiotoxin (10 μM; Latoxan) into the TA muscle. For cryoinjury, an incision was made in the skin overlying the TA muscle and a copper probe, chilled in liquid nitrogen, was applied to the TA muscle for three 10 s intervals, allowing the muscle to thaw between each application of the cryoprobe. When indicated, 48 hr after injury either 16,16-Dimethyl Prostaglandin E2 (dmPGE2) (13 nmol, Tocris, catalog #4027) or vehicle control (PBS) was injected into the TA muscle. The contralateral TA was used as an internal control. We collected tissues 14 days post-injury for analysis.
Tissue histology: We collected and prepared recipient TA muscle tissues for histology as previously described^5,6. We incubated transverse sections with anti-LAMININ (Millipore, clone A5, catalog #05-206, 1:200), and anti-PAX7 (Santa Cruz Biotechnology, catalog #sc-81648, 1:50) primary antibodies and then with AlexaFluor secondary Antibodies (Jackson ImmunoResearch Laboratories, 1:200). We counterstained nuclei with DAPI (Invitrogen). We acquired images with an AxioPlan2 epifluorescent microscope (Carl Zeiss Microimaging) with Plan NeoFluar 10×/0.30 NA or 20×/0.75 NA objectives (Carl Zeiss) and an ORCA-ER digital camera (Hamamatsu Photonics) controlled by the SlideBook (3i) software. The images were cropped using Adobe Photoshop with consistent contrast adjustments across all images from the same experiment. The image composites were generated using Adobe Illustrator. We analyzed the number of PAX7 positive cells using the MetaMorph Image Analysis software (Molecular Devices), and the fiber area using the Baxter Algorithms for Myofiber Analysis that identified the fibers and segmented the fibers in the image to analyze the area of each fiber. For PAX7 quantification we examined serial sections spanning a depth of at least 2 mm of the TA. For fiber area at least 10 fields of LAMININ-stained myofiber cross-sections encompassing over 400 myofibers were captured for each mouse as above. Data analyses were blinded. The researchers performing the imaging acquisition and scoring were unaware of treatment condition given to sample groups analyzed.
We used an injury model entailing intramuscular injection of 10 μl of notexin (10 μg ml^−1; Latoxan, catalog #L8104) or cardiotoxin (10 μM; Latoxan, catalog #L8102) into the Tibialis anterior (TA) muscle. For cryoinjury, an incision was made in the skin overlying the TA muscle and a copper probe, chilled in liquid nitrogen, was applied to the TA muscle for three 10 s intervals, allowing the muscle to thaw between each application of the cryoprobe. When indicated, 48 hr after injury either 16,16-Dimethyl Prostaglandin E2 (dmPGE2) (13 nmol, Tocris, catalog #4027), Indomethacin (35 μg, Sigma, catalog #17378) or vehicle control (PBS) was injected into the TA muscle. The contralateral TA was used as an internal control, except for the force measurement experiments where each mouse had both legs injured with the same condition and independent mice were used for each condition.
We collected and prepared recipient TA muscle tissues for histology as previously described (26, 27). For mouse injury assays we incubated transverse sections with Rabbit polyclonal anti-PGE2 (abcam, Catalog #ab2318, 1:100) Rat polyclonal anti-Laminin (Clone A5) (EMD Millipore, Catalog #05-206, 1:200), Mouse monoclonal anti-Pax7 (Santa Cruz, Catalog #sc-81648, 1:50), AlexaFluor 647-conjugated wheat germ agglutinin (WGA) antibody (W32466, Thermo Fisher Scientific), Rabbit polyclonal anti-GFP (A11122, Thermo Fisher Scientific, 1:500) and Mouse monoclonal anti-Embryonic Myosin Heavy Chain (DSHB, Catalog #F1.652, 1:10) primary antibodies and then with AlexaFluor secondary Antibodies (Jackson ImmunoResearch Laboratories, 1:500). We counterstained nuclei with DAPI (Invitrogen). […]

[2] = system: gastrocnemius (GA) muscle; test: In vivo muscle force after downhill treadmill run, aged mice, gastrocnemius; design: species or system mouse
Experimental: In vivo muscle force measurement: Aged mice (18 mo.) were subjected to downhill treadmill run for 2 consecutive weeks. During week 1, mice ran daily for 5 days and rested on days 6 and 7. […] During week 2, mice were subjected to 5 days treadmill run only. The treadmill run was performed using the Exer3/6 (Columbus Instruments). Mice ran for 10 minutes on the treadmill at 20 degrees downhill, starting at a speed of 7 meters/min. After 3 min, the speed was increased by 1 meter/min to a final speed of 14 meter/min. […] Force measurements were on the GA muscles at week 5 based on a protocol published previously^5. Briefly, for each mouse, an incision was made to expose the GA. We severed the calcaneus bone with intact achilles tendon and attached the tendon-bone complex to a 300C-LR force transducer (Aurora Scientific) with a thin metal hook. The muscles and tendons were kept moist by periodic wetting with saline (0.9% sodium chloride) solution. The lower limb was immobilized below the knee by a metal clamp without compromising the blood supply to the leg. The mouse was under inhaled anesthetic (2% isofluorane) during the entire force measuring procedure and body temperature was maintained by a heat lamp. […] Data were collected with a PCI-6251 acquisition card (National Instruments) and analyzed in Matlab. We calculated specific force values by normalizing the force measurements by the muscle physiological cross-sectional areas (PCSAs), which were similar between the control and the experimental PGE2 treated group (Table 2). PCSA (measured in mm^2) was calculated according to the following equation^12: PCSA (mm^2)=[mass (g)×Cos θ]÷[ρ (g/mm^3)×fiber length (mm)], where θ is pennation angle of the fiber and ρ is muscle density (0.001056 g/mm^3). […]
The muscle force and synchronization pulses were recorded via a PCI-6251 acquisition card (National Instruments) and analyzed using Matlab. FIGS. 5O-5P show the specific muscle force values that were calculated by normalizing the force measurements with the muscle physiological cross-sectional area. […]

[3] = 13 nM dmPGE2 daily for 5 days after downhill treadmill run, force at week 5

Structure (SMILES)	muscle mass of treated TA ([1]; day 14 post-injury)	effect on endogenous MuSCs in the absence of injury [1]	increase in endogenous PAX7-expressing MuSCs [1]	distribution of myofiber cross-sectional area [1]	specific twitch force of gastrocnemius muscles (Example 2) ([2]; treadmill to exhaustion daily for 10 days, 3 nM PGE2 after each run, force 4 weeks after last run)	myofiber sizes ([1]; aged mice, fourteen days post-injury)	increase in the number of endogenous MuSCs ([1]; aged mice, single dmPGE2 injection, fourteen days post-injury)	specific tetanic force of gastrocnemius [2, 3]	specific twitch force of gastrocnemius [2, 3]
CCCCC[C@H](O)/C=C/[C@H]1[C@H](O)CC(=O)[C@@H]1C/C=C\CCCC(=O)O [PGE2, prostaglandin E2]	did not increase	no difference from vehicle-injected controls	65±7%	striking shift in the distribution of myofibers from smaller toward larger sizes	increase in specific twitch force				
CCCCC(C)(C)[C@H](O)/C=C/[C@H]1[C@H](O)CC(=O)[C@@H]1C/C=C\CCCC(=O)O [dmPGE2, 16,16-dimethyl prostaglandin E2]		no effect	60±15%	shifted toward larger sizes		concomitant increase in myofiber sizes	24±2%	significantly increased	significantly increased
